Results reported in patent US10053417B2, “Neprilysin inhibitors” (THERAVANCE BIOPHARMA R&D IP, LLC, priority 2013, dated 2018).
pKi: −log10 of the molar value.

biological target: T1, human NEP (Homo sapiens, UniProt P08473); test: In vitro enzyme inhibition assay, inhibitor potency at human NEP (Assay 1); type: biochemical; settings: recombinant human NEP; fluorogenic peptide substrate 10 μM; 37° C.; values given as ranges
T1 construct: purchased R&D Systems, Minneapolis, Minn; 1182-ZN
Experimental: The inhibitory activities of compounds at human and rat neprilysin (EC 3.4.24.11; NEP) and human angiotensin converting enzyme (ACE) were determined using in vitro assays as described below.
Recombinant human NEP and recombinant human ACE were obtained commercially (R&D Systems, Minneapolis, Minn., catalog numbers 1182-ZN and 929-ZN, respectively). The fluorogenic peptide substrate Mca-D-Arg-Arg-Leu-Dap-(Dnp)-OH (Medeiros et al. (1997) Braz. J. Med. Biol. Res. 30:1157-62; Anaspec, San Jose, Calif.) and Abz-Phe-Arg-Lys(Dnp)-Pro-OH (Araujo et al. (2000) Biochemistry 39:8519-8525; Bachem, Torrance, Calif.) were used in the NEP and ACE assays respectively.
The assays were performed in 384-well white opaque plates at 37° C. using the fluorogenic peptide substrates at a concentration of 10 μM in Assay Buffer (NEP: 50 mM HEPES, pH 7.5, 100 mM NaCl, 0.01% polyethylene glycol sorbitan monolaurate (Tween-20), 10 μM ZnSO4; ACE: 50 mM HEPES, pH 7.5, 100 mM NaCl, 0.01% Tween-20, 1 μM ZnSO4).
Test compounds were assayed over the range of concentrations from […] to 20 μM. Test compounds were added to the enzymes and incubated for 30 minute at 37° C. prior to initiating the reaction by the addition of substrate. Reactions were terminated after 20 minutes of incubation at 37° C. by the addition of glacial acetic acid to a final concentration of 3.6% (v/v).
Plates were read on a fluorometer with excitation and emission wavelengths set to 320 nm and 405 nm, respectively. Inhibition constants were obtained by nonlinear regression of the data using the equation (GraphPad Software, Inc., San Diego, Calif.): ν=ν0/[1+(I/K′)] where ν is the reaction rate, ν0 is the uninhibited reaction rate, I is the inhibitor concentration and K′ is the apparent inhibition constant.
Compounds of the invention were tested in this assay and found to have pKi values at human NEP as follows.

T1 sequence (P08473 52-750 limits assumed): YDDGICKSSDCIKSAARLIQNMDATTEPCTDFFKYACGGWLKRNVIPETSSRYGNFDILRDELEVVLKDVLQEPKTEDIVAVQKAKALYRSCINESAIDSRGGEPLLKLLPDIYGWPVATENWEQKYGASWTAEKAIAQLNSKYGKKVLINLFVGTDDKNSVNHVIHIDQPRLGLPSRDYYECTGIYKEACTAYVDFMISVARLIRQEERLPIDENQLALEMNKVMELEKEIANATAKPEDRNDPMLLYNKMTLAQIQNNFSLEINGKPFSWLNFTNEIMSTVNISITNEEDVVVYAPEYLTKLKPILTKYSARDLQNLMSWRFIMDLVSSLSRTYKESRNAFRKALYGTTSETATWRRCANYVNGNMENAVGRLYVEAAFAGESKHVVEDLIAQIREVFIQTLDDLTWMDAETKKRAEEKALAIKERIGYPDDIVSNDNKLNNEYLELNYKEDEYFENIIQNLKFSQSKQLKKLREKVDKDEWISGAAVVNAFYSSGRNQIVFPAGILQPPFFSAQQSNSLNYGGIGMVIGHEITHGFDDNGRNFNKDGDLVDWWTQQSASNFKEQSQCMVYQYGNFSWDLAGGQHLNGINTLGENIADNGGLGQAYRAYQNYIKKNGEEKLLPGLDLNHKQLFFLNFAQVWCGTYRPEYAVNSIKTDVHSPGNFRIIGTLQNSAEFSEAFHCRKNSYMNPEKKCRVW

SMILES	pKi
O=C(N[C@H](Cc1ccc(-c2cccc(Cl)c2)cc1)C[C@@H](O)C(=O)O)C(=O)N1CCCC[C@@H]1CO [Example 4-25, (2R,4R)-5-(3′-Chlorobiphenyl-4-yl)-2-hydroxy-4-[2-((R)-2-hydroxymethyl-piperidin-1-yl)-2-oxo-acetylamino]pentanoic acid]	≥ 9.00
O=C(N[C@H](Cc1ccc(-c2cccc(Cl)c2)cc1)C[C@@H](O)C(=O)O)C(=O)N1CCCC[C@H]1CO [Example 4-26, (2R,4R)-5-(3′-Chlorobiphenyl-4-yl)-2-hydroxy-4-[2-((S)-2-hydroxymethyl-piperidin-1-yl)-2-oxo-acetylamino]pentanoic acid]	≥ 9.00
O=C(N[C@H](Cc1ccc(-c2cccc(Cl)c2)cc1)C[C@@H](O)C(=O)O)C(=O)N1CCC(C(=O)O)CC1 [Example 4-27, 1-[(1R,3R)-3-Carboxy-1-(3′-chlorobiphenyl-4-ylmethyl)-3-hydroxypropyl-aminooxalyl]-piperidine-4-carboxylic acid]	8.00 to 9.00
O=C(N[C@H](Cc1ccc(-c2cccc(Cl)c2)cc1)C[C@@H](O)C(=O)O)C(=O)N1CCCC(C(=O)O)C1 (stereo partly drawn) [Example 4-28, 1-[(1R,3R)-3-Carboxy-1-(3′-chlorobiphenyl-4-ylmethyl)-3-hydroxypropyl-aminooxalyl]-piperidine-3-carboxylic acid]	8.00 to 9.00
NC(=O)C1CCN(C(=O)C(=O)N[C@H](Cc2ccc(-c3cccc(Cl)c3)cc2)C[C@@H](O)C(=O)O)CC1 [Example 4-29, (2R,4R)-4-[2-(4-Carbamoyl-piperidin-1-yl)-2-oxo-acetylamino]-5-(3′-chlorobiphenyl-4-yl)-2-hydroxypentanoic acid]	7.50 to 8.00
N#CC1CCCN(C(=O)C(=O)N[C@H](Cc2ccc(-c3cccc(Cl)c3)cc2)C[C@@H](O)C(=O)O)C1 (stereo partly drawn) [Example 4-30, (2R,4R)-5-(3′-Chlorobiphenyl-4-yl)-4-[2-(3-cyanopiperidin-1-yl)-2-oxo-acetylamino]-2-hydroxypentanoic acid]	7.50 to 8.00
O=C(N[C@H](Cc1ccc(-c2cccc(Cl)c2)cc1)C[C@@H](O)C(=O)O)C(=O)N1CCC(F)CC1 [Example 4-31, (2R,4R)-5-(3′-Chlorobiphenyl-4-yl)-4-[2-(4-fluoropiperidin-1-yl)-2-oxo-acetylamino]-2-hydroxypentanoic acid]	7.50 to 8.00
O=C(N[C@H](Cc1ccc(-c2cccc(Cl)c2)cc1)C[C@@H](O)C(=O)O)C(=O)N1CCCC(CCO)C1 (stereo partly drawn) [Example 4-32, (2R,4R)-5-(3′-Chlorobiphenyl-4-yl)-2-hydroxy-4-{2-[3-(2-hydroxyethyl)-piperidin-1-yl]-2-oxo-acetylamino}pentanoic acid]	7.50 to 8.00
O=C(N[C@H](Cc1ccc(-c2cccc(Cl)c2)cc1)C[C@@H](O)C(=O)O)C(=O)N1CCC[C@H](CO)C1 [Example 4-33, (2R,4R)-5-(3′-Chlorobiphenyl-4-yl)-2-hydroxy-4-[2-((S)-3-hydroxymethyl-piperidin-1-yl)-2-oxo-acetylamino]pentanoic acid]	8.00 to 9.00
CN1CCN(C(=O)C(=O)N[C@H](Cc2ccc(-c3cccc(Cl)c3)cc2)C[C@@H](O)C(=O)O)CC1 [Example 4-34, (2R,4R)-5-(3′-Chlorobiphenyl-4-yl)-2-hydroxy-4-[2-(4-methyl-piperazin-1-yl)-2-oxo-acetylamino]pentanoic acid]	7.50 to 8.00
CCOC(=O)N1CCN(C(=O)C(=O)N[C@H](Cc2ccc(-c3cccc(Cl)c3)cc2)C[C@@H](O)C(=O)O)CC1 [Example 4-35, 4-[(1R,3R)-3-Carboxy-1-(3′-chlorobiphenyl-4-ylmethyl)-3-hydroxy-propylaminooxalyl]-piperazine-1-carboxylic acid ethyl ester]	7.50 to 8.00
O=C(N[C@H](Cc1ccc(-c2cccc(Cl)c2)cc1)C[C@@H](O)C(=O)O)C(=O)N1CCN(C(=O)c2ccco2)CC1 [Example 4-36, (2R,4R)-5-(3′-Chlorobiphenyl-4-yl)-4-{2-[4-(furan-2-carbonyl)-piperazin-1-yl]-2-oxo-acetylamino}-2-hydroxypentanoic acid]	8.00 to 9.00
N#Cc1ccccc1N1CCN(C(=O)C(=O)N[C@H](Cc2ccc(-c3cccc(Cl)c3)cc2)C[C@@H](O)C(=O)O)CC1 [Example 4-37, (2R,4R)-5-(3′-Chlorobiphenyl-4-yl)-4-{2-[4-(2-cyano-phenyl)-piperazin-1-yl]-2-oxo-acetylamino}-2-hydroxypentanoic acid]	7.50 to 8.00
CCOCCN1CCN(C(=O)C(=O)N[C@H](Cc2ccc(-c3cccc(Cl)c3)cc2)C[C@@H](O)C(=O)O)CC1 [Example 4-38, (2R,4R)-5-(3′-Chlorobiphenyl-4-yl)-4-{2-[4-(2-ethoxy-ethyl)-piperazin-1-yl]-2-oxo-acetylamino}-2-hydroxypentanoic acid]	7.50 to 8.00
CS(=O)(=O)N1CCN(C(=O)C(=O)N[C@H](Cc2ccc(-c3cccc(Cl)c3)cc2)C[C@@H](O)C(=O)O)CC1 [Example 4-39, (2R,4R)-5-(3′-Chlorobiphenyl-4-yl)-2-hydroxy-4-[2-(4-methanesulfonyl-piperazin-1-yl)-2-oxo-acetylamino]pentanoic acid]	7.50 to 8.00
CN(C)C(=O)N1CCN(C(=O)C(=O)N[C@H](Cc2ccc(-c3cccc(Cl)c3)cc2)C[C@@H](O)C(=O)O)CC1 [Example 4-40, (2R,4R)-5-(3′-Chlorobiphenyl-4-yl)-4-[2-(4-dimethylcarbamoyl-piperazin-1-yl)-2-oxo-acetylamino]-2-hydroxypentanoic acid]	7.50 to 8.00
COC(=O)N1CCN(C(=O)C(=O)N[C@H](Cc2ccc(-c3cccc(Cl)c3)cc2)C[C@@H](O)C(=O)O)CC1 [Example 4-41, 4-[(1R,3R)-3-Carboxy-1-(3′-chlorobiphenyl-4-ylmethyl)-3-hydroxy-propylaminooxalyl]-piperazine-1-carboxylic acid methyl ester]	8.00 to 9.00
C[C@@H]1COC[C@H](C)N1C(=O)C(=O)N[C@H](Cc1ccc(-c2cccc(Cl)c2)cc1)C[C@@H](O)C(=O)O [Example 4-42, (2R,4R)-5-(3′-Chlorobiphenyl-4-yl)-4-[2-((3R,5S)-3,5-dimethylmorpholin-4-yl)-2-oxo-acetylamino]-2-hydroxypentanoic acid]	7.50 to 8.00
O=C(N[C@H](Cc1ccc(-c2cccc(Cl)c2)cc1)C[C@@H](O)C(=O)O)C(=O)N1CCOC(CO)C1 (stereo partly drawn) [Example 4-43, (2R,4R)-5-(3′-Chlorobiphenyl-4-yl)-2-hydroxy-4-[2-(2-hydroxymethyl-morpholin-4-yl)-2-oxo-acetylamino]pentanoic acid]	8.00 to 9.00
O=C(N[C@H](Cc1ccc(-c2cccc(Cl)c2)cc1)C[C@@H](O)C(=O)O)C(=O)N1CCOCC1 [Example 4-44, (2R,4R)-5-(3′-Chlorobiphenyl-4-yl)-2-hydroxy-4-(2-morpholin-4-yl-2-oxo-acetylamino)pentanoic acid]	8.00 to 9.00
C[C@@H]1CN(C(=O)C(=O)N[C@H](Cc2ccc(-c3cccc(Cl)c3)cc2)C[C@@H](O)C(=O)O)C[C@H](C)O1 [Example 4-45, (2R,4R)-5-(3′-Chlorobiphenyl-4-yl)-4-[2-((2R,6S)-2,6-dimethylmorpholin-4-yl)-2-oxo-acetylamino]-2-hydroxypentanoic acid]	8.00 to 9.00
C[C@@H]1CO[C@@H](C)CN1C(=O)C(=O)N[C@H](Cc1ccc(-c2cccc(Cl)c2)cc1)C[C@@H](O)C(=O)O [Example 4-46, (2R,4R)-5-(3′-Chlorobiphenyl-4-yl)-4-[2-((2S,5R)-2,5-dimethylmorpholin-4-yl)-2-oxo-acetylamino]-2-hydroxypentanoic acid]	8.00 to 9.00
C[C@H]1COC[C@H](C)N1C(=O)C(=O)N[C@H](Cc1ccc(-c2cccc(Cl)c2)cc1)C[C@@H](O)C(=O)O [Example 4-47, (2R,4R)-5-(3′-Chlorobiphenyl-4-yl)-4-[2-((3S,5S)-3,5-dimethylmorpholin-4-yl)-2-oxo-acetylamino]-2-hydroxypentanoic acid]	8.00 to 9.00
O=C(N[C@H](Cc1ccc(-c2cccc(Cl)c2)cc1)C[C@@H](O)C(=O)O)C(=O)N1CCCO1 [Example 4-48, (2R,4R)-5-(3′-Chlorobiphenyl-4-yl)-2-hydroxy-4-(2-isoxazolidin-2-yl-2-oxo-acetylamino)pentanoic acid]	8.00 to 9.00
O=C(N[C@H](Cc1ccc(-c2cccc(Cl)c2)cc1)C[C@@H](O)C(=O)O)C(=O)N1CC(O)CO1 (stereo partly drawn) [Example 4-49, (2R,4R)-5-(3′-Chlorobiphenyl-4-yl)-2-hydroxy-4-[2-(4-hydroxyisoxazolidin-2-yl)-2-oxo-acetylamino]pentanoic acid]	8.00 to 9.00
O=C(N[C@H](Cc1ccc(-c2cccc(Cl)c2)cc1)C[C@@H](O)C(=O)O)C(=O)N1CC2(COC2)C1 [Example 4-50, (2R,4R)-5-(3′-Chlorobiphenyl-4-yl)-2-hydroxy-4-[2-(2-oxa-6-aza-spiro[3.3]hept-6-yl)-2-oxo-acetylamino]pentanoic acid]	7.50 to 8.00
